The target in the experiment is T1, human MCP (Homo sapiens, UniProt P28074+Q99436).
T1 construct: Samples of human liver and brain obtained post-mortem were used for isolation and partial purification of MCP; from tissue; host or cells: human liver and brain, post-mortem
Put plainly: Determination of IC50 values for MCP inhibitors (chymotrypsin-like or trypsin-like activity of MCP). It is filed as biochemical. To be noted: for % Inhibition (1 μM): 1 μM inhibitor. As to the method: Samples of human liver and brain obtained post-mortem were used for isolation and partial purification of MCP by ion-exchange chromatography, ammonium sulfate precipitation, and gel filtration (e.g., Driscoll and Goldberg, Proc. Natl. Acad. Sci. 86, 787-791 (1989); Yamamoto et al., Biochim, Biophys. Acta 882, 297-304 (1986). For either starting material, tissue was homogenized in 10 volumes of 20 mM Tris-HCl (pH 7.5) containing 20% glycerol. Following centrifugation at 40,000×g for 30 minutes, proteolytic activity of the chymotrypsin-like component of MCP could be detected in the supernatant (see below). The supernatant was fractionated on a DEAE-Sepharose Fast Flow column equilibrated in homogenization buffer. For each liter of supernatant, 250 ml of resin was used. Following sample loading, the column was washed with ^~ 10 volumes homogenization buffer, and proteins were eluted with a linear NaCl gradient of from 0 to 400 mM (21 for 250 ml resin). Fractions were assayed for MCP activity, and the active fractions were pooled and subjected to precipitation with (NH4)2 SO4 at 80% saturation. Precipitated proteins were collected by centrifugation, resuspended in homogenization buffer, and loaded on a Sephacryl S300HR column (500 ml resin volume) that had been standardized using bovine serum albumin (68 kDa). A single peak of MCP activity was eluted with a molecular weight of ^~ 650 kDa. This preparation was free of other measurable proteolytic activities and maintained its MCP activity upon storage at 4° C. for >6 months. This preparation was used for most of the experiments. Further fractionation of the preparation on an hydroxyapatite-Ultrogel column (Yamamoto et al., supra) yielded a more highly purified enzyme, which according to denaturing SDS-polyacrylamide gel electrophoresis was comprised of the expected >10 subunits ranging in Mr from 20 to 35 kDa.
The procedure for MPC isolation described above generated an enzyme complex whose proteolytic activities were latent, but which could be activated by addition of low concentrations (0.02-0.05%) of SDS (Yamamoto et al., supra). The chymotrypsin-like activity was assayed according to the following procedure: in 96 well microtiter plates, human MCP was diluted 4 to 10-fold in homogenization buffer containing 0.04% SDS. A calorimetric substrate MeOSuc-EVKM-para-nitroanilide (methoxysuccinyl-Glu-Val-Lys-Met-pNa), purchased from Bachem Bioscience Inc., King of Prussia, Pennsylvania was added to a final concentration of 100 μM from a stock solution of 10 mM in dimethylsulfoxide. Reaction volumes were 200 μl per well. After incubation for various periods of time at 37° C., the concentration of free pNa was determined on a Biotech EL-340 microplate reader, reading absorption at 490 nm. Protease activity was determined under conditions in which substrate hydrolysis increased linearly with time and the change in absorption was proportional to the concentration of free pNa. Alternatively, a fluorogenic substrate was used, methoxysuccinyl-Phe-Leu-Phe-amidomethylcoumarin (Enzyme Systems Products, Dublin, Calif.), and the change in fluorescence monitored at an excitation of 390 nm, and an emission at 460 nm.
The trypsin-like activity of human MCP was assayed as described above with the following modifications. Reactions were carried out in Tris-glycerol buffer (pH 9.5) supplemented with 1 mM 2-mercaptoethanol, and the substrate was a fluorogenic substrate, Benzyloxycarbonyl--Phe--Arg--AMC (100 μM).
After incubation for various periods of time at 37° C., the concentration of free AMC was determined on a Fluoroskan II spectrofluorimeter with an excitation filter of 390 nm and an emission filter of 460 nm. Protease activity was determined under conditions in which substrate hydrolysis increased linearly with time and the change in fluorescence was proportional to the concentration of free AMC. […]

Where [1] appears, read: Table 5, first series, enzyme incubated with inhibitor 15 minutes at 37° C. prior to substrate.
Where [2] appears, read: Table 5, second series (Examples 36-38), enzyme incubated with inhibitor 15 minutes at 37° C. prior to substrate.

“And” between values parts separate entries of the source, which are not always exact repeats. Equal entries are not always repeated.

On to `CC(C)C[C@H](NC(=O)[C@H](CCCNC(=N)N[N+](=O)[O-])NC(=O)C(CCCCCCCCC#N)C1CCCC1)C(=O)CCl` (single isomer, unassigned; isomer a) [39 (Isomer a), 10-Cyano-2-cyclopentyl-decanoyl-N^g-nitro-L-arginyl-L-leucine chloromethylketone], for which the half-maximal inhibitory concentration (IC50) (Table 7) is more than 1000 nM. For the same compound, where the note is “Table 7, 1 µM”, the “% Inhibition (1 μM)” value is 31%.
As for `CCNC(=O)C(=O)[C@H](CC(C)C)NC(=O)[C@H](CCCNC(N)=N[N+](=O)[O-])NC(=O)C(CCCCCCCCC#N)C1CCCC1` (single isomer, unassigned; isomer a) [41 (Isomer a), 10-Cyano-2-Cyclopentyl-decanoyl-N^g-nitro-L-arginyl-L-leucine alpha-ketoethylamide], for the setting “Table 7”, half-maximal inhibition (IC50) was put at 22 nM. Further, under “Table 7, 1 µM”, the “% Inhibition (1 μM)” value was 99%.
Consider `CC(C)C[C@H](NC(=O)[C@H](CCCNC(=N)N[N+](=O)[O-])NC(=O)C(CCCCCCCCC#N)C1CCCC1)C(=O)CCl` (single isomer, unassigned; isomer b) [39 (Isomer b), 10-Cyano-2-cyclopentyl-decanoyl-N^g-nitro-L-arginyl-L-leucine chloromethylketone], for which the half-inhibitory concentration (IC50) (Table 7) was more than 1000 nM. The “% Inhibition (1 μM)” value (Table 7, 1 µM) was found to be 21%.
With `Cc1c(C)c(S(=O)(=O)NC(=N)NCCC[C@H](NC(=O)C(CCCCCCCCC#N)C2CCCC2)C(=O)N[C@H](C=O)CC(C)C)c(C)c2c1OC(C)(C)CC2` (stereo partly drawn) [Compound 15, 10-Cyano-2-cyclopentyl-decanoyl-N^g-(2,2,5,7,8-pentamethylchroman-6-sulfonyl)-L-arginyl-L-leucinal], the IC50 under setting [1] was found to be 20 nM.
Compound `CON=C[C@H](CC(C)C)NC(=O)[C@H](CCCN=C(N)N[N+](=O)[O-])NC(=O)C(CCCCCCCCC#N)C1CCCC1` (stereo partly drawn) [Compound 18, 10-cyano-2-cyclopentyl-decanoyl-N^g-nitro-L-arginyl-L-leucinal-O-methyloxime] returned an IC50 under setting [1] of 700 nM.
Regarding `COC(=O)CCCCCCCC(C(=O)N[C@@H](CCCNC(N)=NS(=O)(=O)c1c(C)cc(OC)c(C)c1C)C(=O)N[C@H](C=O)CC(C)C)C1CCCC1` (stereo partly drawn) [Compound 21, 9-Methoxycarbonyl-2-cyclopentyl-nonanoyl-N^g-(4-methoxy-2,3,6-trimethyl-benzene-1-sulfonyl)-L-arginyl-L-leucinal], 30 nM corresponded to half-maximal inhibition under setting [1] (IC50).
Same read-out and setting: for `CCCC[C@@H](C=O)NC(=O)[C@H](CCCNC(=N)NS(=O)(=O)c1c(C)c(C)c2c(c1C)CCC(C)(C)O2)NC(=O)C(CCCCCCCC(=O)OC)C1CCCC1` (stereo partly drawn) [Compound 22, 9-Methoxycarbonyl-2-cyclopentyl-nonanoyl-N^g-(2,2,5,7,8-pentamethylchroman-6-sulfonyl)-L-arginyl-L-norleucinal] the value was 110 nM; for `COC(=O)CCCCCCCC(C(=O)N[C@@H](CCCNC(N)=N[N+](=O)[O-])C(=O)N[C@H](C=O)CC(C)C)C1CCCC1` (stereo partly drawn) [Compound 23, 9-Methoxycarbonyl-2-cyclopentyl-nonanoyl-N^g-nitro-L-arginyl-L-leucinal], 5 nM; for `CC(C)C[C@@H](C=O)NC(=O)[C@H](CCCNC(=N)N[N+](=O)[O-])NC(=O)C(CCCCCCCCNS(=O)(=O)C(F)(F)F)C1CCCC1` (stereo partly drawn) [Compound 25, 10-(trifluoromethanesulfonyl)amino-2-cyclopentyl-decanoyl-N^g-nitro-L-arginyl-L-leucinal], 8 nM and 5 nM.
For the compound `COC(=O)CCCCCCCC(=O)N[C@@H](CCCN=C(N)N[N+](=O)[O-])C(=O)N[C@H](C=O)CC(C)C` [Compound 26, Monomethylazelayl-N^g -nitro-L-arginyl-L-leucinal], the IC50 under setting [1] was determined as 40 nM.
For the compound `COC(=O)CCCCCCCC(=O)N[C@@H](CCCNC(=N)NS(=O)(=O)c1c(C)c(C)c2c(c1C)CCC(C)(C)O2)C(=O)N[C@H](C=O)CC(C)C` [Compound 28, Monomethylazelayl-N^g-(2,2,5,7,8-pentamethylchroman-6-sulfonyl)-L-arginyl-L-leucinal], under setting [1], the midpoint of inhibition, the IC50, lay at 20 nM.
With `COC(=O)CCCCCCCC(=O)N[C@H](CCCNC(N)=NS(=O)(=O)c1c(C)c(C)c2c(c1C)CCC(C)(C)O2)C(=O)N[C@H](C=O)CC(C)C` [Compound 29, Monomethylazelayl-N^g-(2,2,5,7,8-pentamethylchroman-6-sulfonyl)-D-arginyl-L-leucinal], the half-inhibitory concentration (IC50) under setting [1] is more than 300 nM.
`CCCC[C@@H](C=O)NC(=O)[C@H](CCCN=C(N)NS(=O)(=O)c1c(C)c(C)c2c(c1C)CCC(C)(C)O2)NC(=O)CCCCCCCC(=O)OC` [Compound 30, Monomethylazelayl-N^g-(2,2,5,7,8-pentamethylchroman-6-sulfonyl)-L-arginyl-L-norleucinal] yielded a concentration for half-maximal inhibition (IC50) under setting [1] of more than 100 nM.
In the case of `COC(=O)CCCCCCCC(=O)N[C@@H](CCCN=C(N)NS(=O)(=O)c1ccc(C)cc1)C(=O)N[C@H](C=O)CC(C)C` [Compound 31, Monomethylazelayl-N^g -(p-toluenesulfonyl)-L-arginyl-L-leucinal], under setting [1], the IC50 is 75 nM.
The same measure, in the same setting: for `COC(=O)CCCCCCCC(=O)N[C@@H](CCCNC(N)=NS(=O)(=O)c1c(C)cc(OC)c(C)c1C)C(=O)N[C@H](C=NNC(N)=O)CC(C)C` [Compound 32, Monomethylazelayl-N^g-(4-methoxy,2,3,6-trimethyl-1-sulfonyl)-L-arginyl-L-leucinal semicarbazone] the value was 220 nM; for `COC(=O)CCCCCCCC(=O)N[C@@H](CCCNC(N)=NS(=O)(=O)c1c(C)cc(OC)c(C)c1C)C(=O)N[C@H](C=NNC(N)=S)CC(C)C` [Compound 33, Monomethylazelayl-N^g-(4-methoxy,2,3,6-trimethyl-1-sulfonyl)-L-arginyl-L-leucinal thiosemicarbazone], 700 nM.
Consider `COC(=O)CCCCCCCC(=O)N[C@@H](CCCNC(N)=NS(=O)(=O)c1c(C)cc(C)cc1C)C(=O)N[C@H](C=O)CC(C)C` [Compound 35, Methoxyazelayl-N^g-(2,4,6-trimethylbenzene-1-sulfonyl)-L-arginyl-L-leucinal], for which the 50% inhibitory concentration (IC50) under setting [1] amounted to 40 nM.
Regarding `Cc1c(C)c(S(=O)(=O)NC(N)=NCCC[C@H](NS(=O)(=O)CCCCCCC#N)C(=O)N[C@H](C=O)CC(C)C)c(C)c2c1OC(C)(C)CC2` [Compound 36, 6-Cyano-hexane-1-sulfonyl-N^g-(2,2,5,7,8-pentamethylchroman-6-sulfonyl)-L-arginyl-L-leucinal], under setting [2], the IC50 is more than 100 nM.
Take `CC(C)C[C@@H](C=O)NC(=O)[C@H](CCCNC(=N)N[N+](=O)[O-])NC(=O)c1ccc2ccccc2c1` [Compound 37, 2-Naphthoyl-N^g-nitro-L-arginyl-L-leucinal]: the IC50 under setting [2] was 250 nM.
As for `CC(C)CC(NC(=O)[C@H](CCCNC(N)=N[N+](=O)[O-])NC(=O)C(CCCCCCCCC#N)C1CCCC1)B1OC(C)(C)C(C)(C)O1` (stereo partly drawn) [Example 40, 10-Cyano-2-cyclopentyl-decanoyl-N^g-nitro-L-arginyl-boroleucine pinacol ester], where the note is “Table 7”, half-maximal inhibition (IC50) was put at 6 nM and the “% Inhibition (1 μM)” value was 100%.
With `N#CCCCCCCCCC(C(=O)N[C@@H](CCCNC(N)=N[N+](=O)[O-])C(=O)NC(Cc1ccccc1)C(=O)CF)C1CCCC1` (stereo partly drawn) [Example 42, 10-Cyano-2-cyclopentyl-decanoyl-N^g-nitro-L-arginyl-phenylalanine fluoromethylketone], under “Table 7”, the IC50 is more than 1000 nM and the “% Inhibition (1 μM)” value worked out at 15%.
“Monomethylazelayl-N^g -nitro-L-arginyl-L-phenylalaninal [Compound 27]” yielded an IC50 under setting [1] of 130 nM.

For orientation: IC50 means the concentration needed to halve the response being measured. A high value points to a need for much substance.

The values above are taken from US5990083A, “Multicatalytic protease inhibitors” (Cephalon, Inc., priority 1997, dated 1999).
